Results as given in ChEMBL document CHEMBL1201862, “PubChem BioAssay data set” (2004).
Active and inactive are the calls of the source. Cut-off read from the data, not from the text of the source: actives have a measured IC50 and inactives only a lower limit.

Target: Envelope glycoprotein gp160 (Human immunodeficiency virus 1, UniProt Q6QLK5)
Experiment: cell-free HIV fusion peptide-binding blockers – biochemical, uHTS, fluorescence dequenching, […] (AID 1986)

Chain of Envelope glycoprotein gp160 (Q6QLK5 whole entry, the tested form may be a part): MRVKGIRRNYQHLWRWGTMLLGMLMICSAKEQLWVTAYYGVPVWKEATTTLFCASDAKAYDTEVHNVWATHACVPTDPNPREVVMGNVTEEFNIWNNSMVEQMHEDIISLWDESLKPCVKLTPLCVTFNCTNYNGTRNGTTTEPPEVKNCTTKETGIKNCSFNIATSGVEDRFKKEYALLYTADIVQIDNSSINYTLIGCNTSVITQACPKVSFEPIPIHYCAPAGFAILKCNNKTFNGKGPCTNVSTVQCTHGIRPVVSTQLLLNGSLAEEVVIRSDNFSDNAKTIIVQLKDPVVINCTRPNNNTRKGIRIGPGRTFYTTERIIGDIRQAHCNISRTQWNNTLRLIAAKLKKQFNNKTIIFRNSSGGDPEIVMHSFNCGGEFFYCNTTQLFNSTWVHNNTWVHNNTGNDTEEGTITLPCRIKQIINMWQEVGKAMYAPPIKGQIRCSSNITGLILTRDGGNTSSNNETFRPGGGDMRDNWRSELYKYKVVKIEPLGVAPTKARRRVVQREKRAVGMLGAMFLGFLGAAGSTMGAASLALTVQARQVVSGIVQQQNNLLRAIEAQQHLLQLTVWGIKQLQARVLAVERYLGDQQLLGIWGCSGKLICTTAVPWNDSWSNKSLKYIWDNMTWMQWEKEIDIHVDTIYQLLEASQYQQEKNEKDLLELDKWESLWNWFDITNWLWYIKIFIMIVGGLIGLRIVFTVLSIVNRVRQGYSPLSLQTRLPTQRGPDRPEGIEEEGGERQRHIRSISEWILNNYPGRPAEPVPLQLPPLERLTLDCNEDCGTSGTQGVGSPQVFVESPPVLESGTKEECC

In the case of `COc1ccc(-c2coc3c(C)c4oc(=O)c(CCC(=O)O)c(C)c4cc23)cc1`, the IC50 is reported as 41.7 µM (active).
